Eleven compounds from US10993935B2, “Compositions and methods for treatment of lung infections” (priority 2018, dated 2021) can be followed below.

In data set [1] the test system is P. aeruginosa PAO581 (PAO1mucA25). Nature of the data set: NIH drug library screen for inhibition of growth, mucoidy and PalgD-lacZ colour. The data set is classed as cell-based, Pseudomonas aeruginosa. Conditions: for Growth 10 μM / Mucoidy 10 μM / Color 10 μM: drug at 10 μM; for Growth 10 μM / Growth 50 μM / Growth 2 μM: PAO581 on PIA; for Mucoidy 10 μM / Mucoidy 50 μM / Mucoidy 2 μM: PAO581 with pLP170-PalgD-lacZ on PIA + X-gal; for Color 10 μM / Color 50 μM / Color 2 μM: X-gal colour of PalgD-lacZ reporter, 'Light' wraps to 'Light Blue'; for Growth 50 μM / Mucoidy 50 μM / Color 50 μM: drug at 50 μM; for Growth 2 μM / Mucoidy 2 μM / Color 2 μM: drug at 2 μM.

Data set [2] in a line: Adverse effects after nebulization in mice. The data set is classed as in vivo, C57BL/6 mice. The conditions noted are these: single nebulized dose of 5 ml of 100% DMSO; C57BL/6 mice (n=8). As to the method: Drug Nebulization. C57BL/6 mice (n=8) were first exposed to 5 mL DMSO for 10 minutes to determine any adverse effects that may occur from using DMSO. Mice (n=16) were then exposed to TOB in 0.225% saline or RFX in DMSO via nebulization until the 5 mL drug mixture was depleted—typically 10-15 minutes. Nebulization was conducted using the pressure-based nebulizer and chamber purchased from Kent Scientific (Torrington, Conn.). TOB was nebulized at concentrations of 100 mg (n=4) or 400 mg (n=4) in 5 mL of 0.225% saline. RFX was nebulized at concentrations of 100 mg (n=4) or 400 mg (n=4) in 5 ml of 100% dimethyl sulfoxide. Mice were sacrificed immediately after nebulization via CO2 chamber. Lungs were then collected and homogenized. TOB concentrations were measured using ELISA. RFX concentrations were measured via HPLC.
The potential adverse effects of using DMSO were first assessed by nebulizing DMSO alone to a group of C57BL/6 mice (n=8). This type of mice was used due to their natural resistance against infection based on our previous studies. […] To determine the dosage of each drug received by the mice, the lungs were homogenized and drug concentrations of TOB and RFX were determined via ELISA and HPLC, respectively. […] The droplet size for both TOB and RFX were determined to be identical with the average droplet size for TOB and RFX being 5.07 μm and 5.02 μm, respectively. […]

Each structure is given as a SMILES string. Structures can show the parent of a compound that is named as a salt.

For `CCCCCCCCCOc1ccc2[nH]cc(CCN)c2c1` [5-Nonyloxyltryptamine], in data set [1], the “Growth 10 μM” value is “Yes”, the “Mucoidy 10 μM” value is “High”, the “Color 10 μM” value is listed as “Blue” and the “Growth 50 μM” value is recorded as “Reduced”. In addition, in data set [1], the “Mucoidy 50 μM” value is “High” and the “Color 50 μM” value is recorded as “Blue”.
For the compound `CCCCCCNC(=O)n1cc(F)c(=O)[nH]c1=O` [Carmofur], in data set [1], the “Growth 2 μM” value is listed as “Yes”, the “Mucoidy 2 μM” value is listed as “High”, the “Color 2 μM” value is listed as “Light” and the “Growth 10 μM” value is listed as “Reduced”. Further, in data set [1], the “Mucoidy 10 μM” value is “Inhibited”, the “Color 10 μM” value is “Clear”, the “Growth 50 μM” value is “Reduced” and the “Mucoidy 50 μM” value is listed as “Inhibited”. Further, the “Color 50 μM” value in data set [1] is listed as “Clear”.
As for `CC[C@H]1OC(=O)[C@H](C)[C@@H](O[C@H]2C[C@@](C)(OC)[C@@H](O)[C@H](C)O2)[C@H](C)[C@@H](O[C@@H]2O[C@H](C)C[C@H](N(C)C)[C@H]2O)[C@](C)(OC)C[C@@H](C)C(=O)[C@H](C)[C@@H](O)[C@]1(C)O` [Clarithromycin], in data set [1], the “Growth 2 μM” value is reported as “Yes”, the “Mucoidy 2 μM” value is recorded as “High”, the “Color 2 μM” value is “Blue” and the “Growth 10 μM” value is “Reduced”. Moreover, in data set [1], the “Mucoidy 10 μM” value was “High”, the “Color 10 μM” value is listed as “Blue”, the “Growth 50 μM” value is “Yes” and the “Mucoidy 50 μM” value is on record as “Inhibited”. Also, the “Color 50 μM” value in data set [1] is on record as “Light”.
In the case of `C[S+](C)[O-]` [DMSO, dimethyl sulfoxide], the adverse effects entry in data set [2] is “no adverse effects”.
Regarding `CCN1CCN(c2cc3c(cc2F)c(=O)c(C(=O)O)cn3C2CC2)CC1` [Enrofloxacin], in data set [1], the “Growth 2 μM” value was “Inhibited”, the “Growth 10 μM” value is reported as “Inhibited” and the “Growth 50 μM” value is listed as “Inhibited”.
In the case of `COc1c(N2C[C@@H]3CCCN[C@@H]3C2)c(F)cc2c(=O)c(C(=O)O)cn(C3CC3)c12` [Moxifloxacin Hydrochloride], in data set [1], the “Growth 2 μM” value was “Reduced”, the “Mucoidy 2 μM” value is given as “Reduced”, the “Color 2 μM” value is “Light” and the “Growth 10 μM” value is “Inhibited”. Also, the “Growth 50 μM” value in data set [1] was “Inhibited”.
For the compound `C[C@H]1COc2c(C3(N)CC3)c(F)cc3c(=O)c(C(=O)O)cn1c23` [Pazufloxacin], in data set [1], the “Growth 2 μM” value was “Inhibited”, the “Growth 10 μM” value is recorded as “Inhibited” and the “Growth 50 μM” value is “Inhibited”.
Regarding `CO[C@H]1/C=C/O[C@@]2(C)Oc3c(C)c(O)c4c(c3C2=O)C2=NC3(CCN(CC(C)C)CC3)NC2=C(NC(=O)/C(C)=C\C=C\[C@H](C)[C@H](O)[C@@H](C)[C@@H](O)[C@@H](C)[C@H](OC(C)=O)[C@@H]1C)C4=O` [Rifabutin], in data set [1], the “Growth 2 μM” value is reported as “Reduced”, the “Mucoidy 2 μM” value is recorded as “High”, the “Color 2 μM” value is “Light” and the “Growth 10 μM” value is on record as “Inhibited”. In addition, in data set [1], the “Growth 50 μM” value is “Inhibited”.
Turning to `CO[C@H]1/C=C/O[C@@]2(C)Oc3c(C)c(O)c4c(O)c(c(/C=N/N5CCN(C6CCCC6)CC5)c(O)c4c3C2=O)NC(=O)/C(C)=C\C=C\[C@H](C)[C@H](O)[C@@H](C)[C@@H](O)[C@@H](C)[C@H](OC(C)=O)[C@@H]1C` [Rifapentine], in data set [1], the “Growth 2 μM” value is “Yes”, the “Mucoidy 2 μM” value is “High”, the “Color 2 μM” value is on record as “Blue” and the “Growth 10 μM” value was “Reduced”. Moreover, in data set [1], the “Mucoidy 10 μM” value is “Reduced”, the “Color 10 μM” value is listed as “Light” and the “Growth 50 μM” value is on record as “Inhibited”.
On to `CN1CCN(c2c(F)cc3c(=O)c(C(=O)O)cn4c3c2SCC4)CC1` [Rufloxacin Monohydrate], for which, in data set [1], the “Growth 10 μM” value is listed as “Yes”, the “Mucoidy 10 μM” value is “High”, the “Color 10 μM” value is reported as “Blue” and the “Growth 50 μM” value is given as “Yes”. Moreover, in data set [1], the “Mucoidy 50 μM” value is on record as “Inhibited” and the “Color 50 μM” value is “Light”.
`NC1CCN(c2nc3c(cc2F)c(=O)c(C(=O)O)cn3-c2ccc(F)cc2F)C1` (stereo not drawn) [Tosufloxacin Tosilate]: in data set [1], the “Growth 2 μM” value is listed as “Inhibited”, the “Growth 10 μM” value is “Inhibited” and the “Growth 50 μM” value is on record as “Inhibited”.
